According to US20150258129A1, “Method for Increasing the Activity of Lysosomal Enzymes” (Mount Sinai School of Medicine of New York University, priority 1998, published 2015):
Positions count from the first letter of the chain named. Read-outs that look alike come from different tables or passages of the source. One block for each compound: values may come before it.

Key:
human lysosomal α-Gal A = target: T1, human lysosomal α-Gal A (Homo sapiens, UniProt P06280); experiment: In vitro inhibition of α-Gal A (recombinant, expressed in Sf-9 insect cells); format: biochemical; conditions: for IC50 / Ki: p-nitrophenyl-α-D-galactopyranoside as substrate; for IC50: pH 4.5; for reduction of inhibitory potential / affinity for α-Gal A relative to DGJ: compared with DGJ; for Ki: read-out: Ki for α-Gal A, from the slope of Lineweaver-Burk plots
T1 construct: made in house; host or cells: Sf-9 insect cells, recombinant baculovirus
T1 sequence (P06280 32-429): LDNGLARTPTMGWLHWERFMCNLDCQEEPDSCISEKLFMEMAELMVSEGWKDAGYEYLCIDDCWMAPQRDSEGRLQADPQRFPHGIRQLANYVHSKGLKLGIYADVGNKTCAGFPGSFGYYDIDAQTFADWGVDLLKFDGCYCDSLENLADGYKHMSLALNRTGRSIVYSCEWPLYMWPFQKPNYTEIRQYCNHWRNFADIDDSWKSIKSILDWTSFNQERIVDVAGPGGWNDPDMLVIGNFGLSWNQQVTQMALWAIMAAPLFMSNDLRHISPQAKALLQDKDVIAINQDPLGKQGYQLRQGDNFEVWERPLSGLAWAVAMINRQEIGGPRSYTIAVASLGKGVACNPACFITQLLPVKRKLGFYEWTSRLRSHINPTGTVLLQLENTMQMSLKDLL

mutant α-Gal A (R301Q) = target: T2, mutant α-Gal A (R301Q) (Homo sapiens, UniProt P06280, R301Q); experiment: Intracellular enhancement of α-Gal A activity in Fabry lymphoblasts; format: cell-based; parameters: endogenous in cells; host or cells: Epstein-Barr virus-transformed lymphoblasts from a Fabry patient (R301Q); conditions: for intracellular α-Gal A activity in Fabry lymphoblasts (summary): concentration ranges of 10-1000 μM; for increase of α-Gal A enzyme activity in R301Q lymphoblasts: inhibitor at 100 μM; for increase of α-Gal A enzyme activity in R301Q lymphoblasts / enhancement of α-Gal A activity in R301Q lymphoblasts / α-Gal A activity in R301Q lymphoblasts with increasing concentration of calystegine compound: 4 days; for enhancement of α-Gal A activity in R301Q lymphoblasts: inhibitor at 1000 μM; for α-Gal A activity in R301Q lymphoblasts with increasing concentration of calystegine compound: range 100-1000 μM, FIG. 6
T2 sequence (P06280 32-429 R301Q): T1 sequence (P06280 32-429) with R270Q
Procedure: FIG. 4B depicts results in which each inhibitor was added to the culture medium of R301Q lymphoblasts at a concentration of 100 μM. Cells were subsequently incubated for 4 days. After being washed twice with phosphate-buffered saline, the intracellular enzyme activity was determined with 4-MU-α-Gal as the substrate.
R301Q lymphoblasts were cultured with DGJ (4) ([…]), α-allo-HNJ (9) (▪), α-galacto-HNJ (10) (▴), or β-1-C-butyl-DGJ (16) (♦) at 1-1000 μM for 4 days before being collected for enzyme assay.
In FIG. 6B, R301Q lymphoblasts were cultured with calystegine B2 (18) and the results are shown therein. In FIG. 6C, R301Q lymphoblasts were cultured with N-methyl calystegine A3 (19) and the results are shown therein. In FIG. 6D R301Q lymphoblasts were cultured with N-methyl calystegine B2 (20) at 100-1000 μM for 4 days before being collected for enzyme assay and the results are shown therein.
The Epstein-Barr virus-transformed lymphoblast lines from a normal adult and a Fabry patient with R301Q mutation in α-Gal A (38) were cultured in RPMI-1640 medium (Nissui Pharmaceutical Co., Tokyo, Japan) supplemented with 10% fetal calf serum (FCS) at 37° C. under 5% CO2. Human fibroblasts from Gaucher and GM1-gangliosidosis patients were cultured in McCoy 5A medium supplemented with 10% FCS at 37° C. under 5% CO2.
Cells were cultured in the presence or absence of inhibitor for 4 days. After being washed twice with phosphate-buffered saline (PBS), the cells were harvested and homogenized in 200 μl of H2O, and 10 μl of the supernatant obtained by centrifugation at 10,000 g was incubated at 37° C. with 50 μl of the substrate solution composed by 6 mM 4-methylumbelliferyl α-D-galactoside (4-MU-α-Gal) and 90 mM N-acetylgalactosamine in 0.1 M citrate buffer (pH 4.5) for enzyme assay. One unit of intracellular enzyme activity was defined as one nmol of 4-methylumbelliferone released per hour at 37° C.

[1] = target: human β-glucocerebrosidase (Homo sapiens, UniProt P04062); experiment: In vitro inhibition of human β-glucocerebrosidase; format: biochemical; conditions: for IC50: 0.1M citrate buffer (pH 5.2), 4-MU-β-Glu as substrate
Sequence of human β-glucocerebrosidase (P04062 40-536): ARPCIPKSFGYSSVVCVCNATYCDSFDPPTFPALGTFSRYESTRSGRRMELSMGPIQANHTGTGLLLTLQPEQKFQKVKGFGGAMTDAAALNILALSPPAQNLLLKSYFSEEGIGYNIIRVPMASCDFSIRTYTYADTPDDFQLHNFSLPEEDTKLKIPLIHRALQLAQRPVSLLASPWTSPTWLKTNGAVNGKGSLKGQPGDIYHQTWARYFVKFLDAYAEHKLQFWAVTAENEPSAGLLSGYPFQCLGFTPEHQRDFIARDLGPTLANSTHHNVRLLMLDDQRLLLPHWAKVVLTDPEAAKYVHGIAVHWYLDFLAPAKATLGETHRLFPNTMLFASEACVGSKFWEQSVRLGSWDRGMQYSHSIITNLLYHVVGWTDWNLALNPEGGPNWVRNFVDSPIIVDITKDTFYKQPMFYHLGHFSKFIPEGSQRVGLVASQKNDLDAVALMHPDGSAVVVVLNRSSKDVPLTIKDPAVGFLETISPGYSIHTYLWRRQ

[2] = target: T3, glucocerebrosidase (β-Glu), N370S/N370S (Homo sapiens, UniProt P04062, N409S); experiment: Intracellular enhancement of β-Glu activity in Gaucher fibroblasts (N370S/N370S); format: cell-based; conditions: for intracellular β-Glu activity in Gaucher fibroblasts (summary): concentration ranges of 0.05-100 μM
T3 construct: endogenous in cells; host or cells: human Gaucher patient fibroblasts, genotype N370S/N370S
T3 sequence (P04062 40-536 N409S): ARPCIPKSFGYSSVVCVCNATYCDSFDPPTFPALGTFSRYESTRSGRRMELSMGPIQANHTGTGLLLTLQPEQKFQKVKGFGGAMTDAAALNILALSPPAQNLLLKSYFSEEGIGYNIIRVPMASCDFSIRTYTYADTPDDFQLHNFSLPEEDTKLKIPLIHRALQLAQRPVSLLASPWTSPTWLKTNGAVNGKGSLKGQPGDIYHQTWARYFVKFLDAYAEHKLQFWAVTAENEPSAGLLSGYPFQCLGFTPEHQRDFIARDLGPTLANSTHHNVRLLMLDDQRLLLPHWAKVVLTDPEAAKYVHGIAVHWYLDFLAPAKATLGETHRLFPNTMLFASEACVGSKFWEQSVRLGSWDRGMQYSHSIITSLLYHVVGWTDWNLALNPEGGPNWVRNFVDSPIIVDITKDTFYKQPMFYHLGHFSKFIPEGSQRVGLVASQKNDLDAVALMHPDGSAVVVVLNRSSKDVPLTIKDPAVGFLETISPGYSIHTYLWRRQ

[3] = IC30 and (Ki)*: IC50 values (inhibitor concentration giving 50% inhibition) for α-Gal A
[4] = read-out: IC30 and (Ki)*: IC50 values (inhibitor concentration giving 50% inhibition) for α-Gal A
[5] = N370S/N370S, compound at 10 μM, 5 days
[6] = N370S/N370S, compound at 100 μM, 5 days

Compound: OCC1NCC(O)C(O)C1O (stereo not drawn) [compound 2, 1-Deoxymannojirimycin]
inhibition of α-Gal A (in words) (human lysosomal α-Gal A): no appreciable inhibition even at 1000 μM

Compound: OCC1NCC(O)C(O)C1O (stereo not drawn) [compound 3, 1-Deoxy-3-epi-nojirimycin]
inhibition of α-Gal A (in words) (human lysosomal α-Gal A): no appreciable inhibition even at 1000 μM

Compound: OC[C@H]1NC[C@H](O)[C@H](O)[C@H]1O [compound 5, 1-deoxy-3,4-diepi-nojirimycin]
inhibition of α-Gal A (in words) (human lysosomal α-Gal A): no appreciable inhibition even at 1000 μM

IC50 (human lysosomal α-Gal A; [3]): 250 µM
reduction of inhibitory potential / affinity for α-Gal A relative to DGJ (human lysosomal α-Gal A): over 6000 fold
Compound: OCC1NCCC(O)C1O (stereo not drawn) [compound 6, 1,2-dideoxy-galactonojirimycin]

inhibition of α-Gal A (in words) (human lysosomal α-Gal A): not an inhibitor
IC50 (human lysosomal α-Gal A; [3]): > 1000 µM
Compound: OCC1NC(CO)C(O)C(O)C1O (stereo not drawn) [compound 7, α-Homonojirimycin]

inhibition of α-Gal A (in words) (human lysosomal α-Gal A): weak inhibitor
IC50 (human lysosomal α-Gal A; [3]): 464 µM
Compound: OCC1NC(CO)C(O)C(O)C1O (stereo not drawn) [compound 8, α-homomannojirimycin]

inhibition mode toward α-Gal A (Lineweaver-Burk plots) (human lysosomal α-Gal A): competitive inhibitors
Ki (human lysosomal α-Gal A): 2.6 µM
IC50 (human lysosomal α-Gal A; [4]): 4.3 µM
intracellular α-Gal A activity in Fabry lymphoblasts (summary) (mutant α-Gal A (R301Q)): effectively increase
increase of α-Gal A enzyme activity in R301Q lymphoblasts (mutant α-Gal A (R301Q)): 2.4 fold
enhancement of α-Gal A activity in R301Q lymphoblasts (mutant α-Gal A (R301Q)): 3.9 fold
Compound: OC[C@H]1N[C@H](CO)[C@@H](O)C(O)[C@H]1O (stereo partly drawn) [compound 9, α-homoallonojirimycin]

inhibition mode toward α-Gal A (Lineweaver-Burk plots) (human lysosomal α-Gal A): competitive inhibitors
reduction of inhibitory potential / affinity for α-Gal A relative to DGJ (human lysosomal α-Gal A): approximately 4 fold
Ki (human lysosomal α-Gal A): 0.17 µM
IC50 (human lysosomal α-Gal A; [4]): 0.21 µM
intracellular α-Gal A activity in Fabry lymphoblasts (summary) (mutant α-Gal A (R301Q)): effectively increase
increase of α-Gal A enzyme activity in R301Q lymphoblasts (mutant α-Gal A (R301Q)): 5.2 fold
enhancement of α-Gal A activity in R301Q lymphoblasts (mutant α-Gal A (R301Q)): 12.5 fold
Compound: OC[C@H]1N[C@H](CO)[C@H](O)C(O)[C@H]1O (stereo partly drawn) [compound 10, α-Homogalactonojirimycin]

IC50 (human lysosomal α-Gal A; [3]): 96 µM
Compound: CN1CC(O)C(O)C(O)C1CO (stereo not drawn) [compound 11, N-Methyl-1-deoxygalactonojirimycin]

IC50 (human lysosomal α-Gal A; [3]): 306 µM
Compound: CCN1CC(O)C(O)C(O)C1CO (stereo not drawn) [compound 12, N-Ethyl-1-deoxygalactonojirimycin]

IC50 (human lysosomal α-Gal A; [3]): 301 µM
Compound: CCCN1CC(O)C(O)C(O)C1CO (stereo not drawn) [compound 13, N-Propyl-1-deoxygalactonojirimycin]

IC50 (human lysosomal α-Gal A; [3]): 520 µM
Compound: OCCN1CC(O)C(O)C(O)C1CO (stereo not drawn) [compound 15, N-Hydroxyethyl-1-deoxygalactonojirimycin]

Compound: CN1C2CCC1(O)C(O)C(O)C2 (stereo not drawn) [compound 19, N-methyl calystegine A3]
intracellular α-Gal A activity in Fabry lymphoblasts (summary) (mutant α-Gal A (R301Q)): effectively increase
α-Gal A activity in R301Q lymphoblasts with increasing concentration of calystegine compound (mutant α-Gal A (R301Q)): elevated with increasing concentration

Compound: CN1C2CCC1(O)C(O)C(O)C2O (stereo not drawn) [compound 20, N-methyl calystegine B2]
IC50 [1]: 320 µM
intracellular α-Gal A activity in Fabry lymphoblasts (summary) (mutant α-Gal A (R301Q)): effectively increase
α-Gal A activity in R301Q lymphoblasts with increasing concentration of calystegine compound (mutant α-Gal A (R301Q)): elevated with increasing concentration

Compound: O[C@@H]1[C@@H](O)C[C@]2(O)CC[C@H]1N2 [compound 22, calystegine A5]
IC50 [1]: 31 µM

Compound: O[C@@H]1C[C@]2(O)N[C@H]1C[C@@H](O)[C@@H]2O [compound 23, calystegine B1]
IC50 [1]: 2.5 µM
intracellular β-Glu activity in Gaucher fibroblasts (summary) [2]: effectively enhance

Compound: O[C@@H]1[C@@H](O)[C@H]2CC[C@](O)(N2)[C@@H]1O [compound 24, calystegine B3]
IC50 [1]: 76 µM

Compound: O[C@@H]1[C@H](O)[C@H]2CC[C@](O)(N2)[C@H]1O [compound 25, calystegine B4]
IC50 [1]: 82 µM

Compound: OC1CC2(O)NC1C(O)C(O)C2O (stereo not drawn) [compound 26, calystegine C1]
IC50 [1]: 2.5 µM
intracellular β-Glu activity in Gaucher fibroblasts (summary) [2]: effectively enhance

IC50 [1]: 160 µM
Compound: OC[C@H]1NC[C@@H](O)[C@@H]1O [compound 28, 1,4-dideoxy-1,4-imino-D-arabinitol]

Compound: CCCCN1C[C@H](CO)[C@@H](O)[C@H](O)C1 [compound 34, N-Butyl-isofagomine]
IC50 [1]: 44 µM
elevation of residual β-Glu activity in Gaucher cells [2, 5]: 73%
elevation of residual β-Glu activity in Gaucher cells [2, 6]: 56%
intracellular β-Glu activity in Gaucher fibroblasts (summary) [2]: effectively enhance

IC50 [1]: 100 µM
elevation of residual β-Glu activity in Gaucher cells [2, 5]: 106%
elevation of residual β-Glu activity in Gaucher cells [2, 6]: 47%
intracellular β-Glu activity in Gaucher fibroblasts (summary) [2]: effectively enhance
Compound: OCC1CN(CCCC2CCCCC2)CC(O)C1O (stereo not drawn) [compound 35, N-(3-cyclohexylpropyl)-isofagomine]

IC50 [1]: 69 µM
elevation of residual β-Glu activity in Gaucher cells [2, 5]: 50%
elevation of residual β-Glu activity in Gaucher cells [2, 6]: 54%
intracellular β-Glu activity in Gaucher fibroblasts (summary) [2]: effectively enhance
Compound: OCC1CN(CCCc2ccccc2)CC(O)C1O (stereo not drawn) [compound 36, N-(3-phenylpropyl)-isofagomine]

IC50 [1]: 1.5 µM
increase in potency against β-Glu compared with the 4 carbon chain compound ([1]; compared with compound 32 (so in the source)): 30 fold
elevation of residual β-Glu activity in Gaucher cells [2, 5]: 43%
decrease of residual β-Glu activity in Gaucher cells [2, 6]: 53%
intracellular β-Glu activity in Gaucher fibroblasts (summary) [2]: effectively enhance
Compound: CC(C)=CCC/C(C)=C\CC/C(C)=C/CN1CC(O)C(O)C(CO)C1 (stereo not drawn) [compound 37, N-[(2E,6Z,10Z)-3,7,11-trimethyldodecatrienyl]-isofagomine]

IC50 [1]: 28 µM
Compound: DNJ bisulfite [compound 32]
